This is an account of results in patent publication US20230000940A1, “Composition for prevention or treatment of Porcine epidemic diarrhea virus infection comprising curcuminoid and licorice extracts or fraction thereof” (KOREA RESEARCH INSTITUTE OF BIOSCIENCE AND BIOTECHNOLOGY, priority 2019, published 2023).

One assay concerns IL-8. Nature of the assay: Inhibitory effect on IL-8 in PED coronavirus-infected Vero cells. The class given is cell-based. As to conditions: 10 μM, vs virus-infected group. As for the experimental part:
To investigate the inhibitory effect of the complex on IL-8, which is a pro-inflammatory cytokine involved in promoting inflammation, virus infection was performed in the same manner as in Example 2-1, followed by treatment with the complex.

For the next assay, the system named is IL-6. Nature of the assay: Inhibitory effect on IL-6 in PED coronavirus-infected Vero cells. As to conditions: 10 μM, vs virus-infected group. In kind it is cell-based. As for the experimental part: To investigate the inhibitory effect of the complex on IL-6, which is a pro-inflammatory cytokine involved in promoting inflammation, virus infection was performed in the same manner as in Example 2-1, followed by treatment with the complex.

Assay [1] has as its system nucleoprotein (N protein) of the PED coronavirus. Particulars: 10 μM, vs virus-infected group.
Method: To investigate the target protein expression inhibitory effect of the complex on the nucleoprotein (N protein) of the PED coronavirus, Vero cells were infected with 0.001 MOI of PED coronavirus for 1 hour.
The next assay deals with TNF-α. The assay can be described thus: Inhibitory effect on TNF-α in PED coronavirus-infected Vero cells. The class given is cell-based. Particulars: 10 μM, vs virus-infected group. As for the experimental part:
To investigate the inhibitory effect of the complex on TNF-α, which is a pro-inflammatory cytokine involved in promoting inflammation, virus infection was performed in the same manner as in Example 2-1, followed by treatment with the complex.

The test system of a further assay is PED coronavirus. Particulars: component alone; statement without data; cited from earlier work.

On to `O=c1cnn([C@@H]2O[C@H](CO)[C@@H](O)[C@H]2O)c(=O)[nH]1` [6-azauridine], for which the “inhibitory effect on IL-8” value with IL-8 was 25.4 fold. Moreover, the “inhibitory effect on IL-6” value in the assay on IL-6 turned out to be 5.8 fold. In addition, the “nucleoprotein synthesis inhibition (inhibitory effect)” value in assay [1] was 6.8 fold. Moreover, the “inhibitory effect on TNF-α” value in the assay on TNF-α was 3.8 fold.
Turning to `COc1cc(/C=C/C(=O)/C=C(O)/C=C/c2ccc(O)c(OC)c2)ccc1O` [curcumin], the “inhibitory effect against PED coronavirus” value in the assay with PED coronavirus is recorded as “no inhibitory effect”.
